From ChEMBL document CHEMBL4229431, “Discovery of novel selective GPR120 agonists with potent anti-diabetic activity by hybrid design” (Bioorg Med Chem Lett, 2018)
pEC50: −log10 of the molar value. Calls of active or inactive are those of the source. No cut-off for these calls is given here.

Experiments:
[1] = target: T1, Free fatty acid receptor 4 (Homo sapiens) (UniProt Q5NUL3); assay: Agonist activity at human GPR120 expressed in CHO cells assessed as increase in intracellular calcium level at 1 uM by Fluo-4-AM dye based assay; assay type: functional, cell-based
T1 sequence (whole entry): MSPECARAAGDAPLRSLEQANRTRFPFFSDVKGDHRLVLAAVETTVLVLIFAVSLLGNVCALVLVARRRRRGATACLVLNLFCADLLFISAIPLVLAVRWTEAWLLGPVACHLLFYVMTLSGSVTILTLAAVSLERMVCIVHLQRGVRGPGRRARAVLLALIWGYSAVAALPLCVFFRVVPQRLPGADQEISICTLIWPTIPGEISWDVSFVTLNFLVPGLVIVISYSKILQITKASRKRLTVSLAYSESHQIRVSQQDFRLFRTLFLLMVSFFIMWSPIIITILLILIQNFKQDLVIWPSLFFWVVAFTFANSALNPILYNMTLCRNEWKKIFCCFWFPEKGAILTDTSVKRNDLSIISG

[2] = target: T2, Free fatty acid receptor 4 (Homo sapiens, UniProt Q5NUL3); assay: Agonist activity at human GPR120; assay type: functional
T2 sequence (Q5NUL3 whole entry): T1 sequence (whole entry)

[3] = target: T2, Free fatty acid receptor 4; assay: Agonist activity at human GPR120 expressed in CHO cells assessed as increase in intracellular calcium level by Fluo-4-AM dye based assay; assay type: functional, cell-based
[4] = target: Free fatty acid receptor 1 (Homo sapiens, UniProt O14842); assay: Agonist activity at human GPR40 expressed in CHO cells assessed as increase in intracellular calcium level by Fluo-4-AM dye based assay; assay type: functional, cell-based
Homo sapiens = species on record: Homo sapiens; assay: Selectivity ratio of EC50 for agonist activity at human GPR40 expressed in CHO cells to EC50 for agonist activity at human GPR120 expressed in CHO cells; assay type: cell-based
Mus musculus [5] = assay: Hypoglycemic activity in ICR mouse assessed as reduction in blood glucose level pretreated orally for 60 mins followed by glucose challenge measured up to 120 mins by OGTT; assay type: functional, organism-based
Mus musculus [6] = assay: Hypoglycemic activity in ICR mouse assessed as reduction in blood glucose level at 10 mg/kg, po pretreated for 60 mins followed by glucose challenge measured up to 120 mins by OGTT; assay type: functional, organism-based

Free fatty acid receptor 1, sequence (O14842 whole entry): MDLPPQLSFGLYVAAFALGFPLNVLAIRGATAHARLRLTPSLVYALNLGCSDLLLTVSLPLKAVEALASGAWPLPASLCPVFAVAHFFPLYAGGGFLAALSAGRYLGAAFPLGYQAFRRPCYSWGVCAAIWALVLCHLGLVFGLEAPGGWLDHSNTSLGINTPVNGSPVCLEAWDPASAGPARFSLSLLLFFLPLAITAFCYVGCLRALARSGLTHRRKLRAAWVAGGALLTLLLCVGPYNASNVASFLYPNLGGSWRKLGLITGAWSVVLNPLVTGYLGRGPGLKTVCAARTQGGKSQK

Row | SMILES | Activity [1] | pEC50 [3] | pEC50 [4] | also measured
1 | COc1cc(-c2cc(O[C@H]3C[C@H](OC)C3)cc(F)c2F)cc(OC)c1OCCCC(=O)O | inactive |  |  | 
2 | CO[C@H]1C[C@H](Oc2cc(F)c(F)c(-c3cc(F)c(OCCCC(=O)NS(=O)(=O)c4ccccc4)c(F)c3)c2)C1 | inactive |  |  | 
3 | CO[C@H]1C[C@H](Oc2cc(F)c(F)c(-c3cc(F)c(OCCCC(=O)OCCNC(C)=O)c(F)c3)c2)C1 | inactive |  |  | 
4 | CO[C@H]1C[C@H](Oc2ccc([N+](=O)[O-])c(-c3cc(F)c(OCCCC(=O)O)c(F)c3)c2)C1 |  | 5.83 | 4.53 | Ratio EC50 (Homo sapiens): 20
5 | CO[C@H]1C[C@H](Oc2cc(F)c(F)c(-c3cc(F)c(OCCCC(=O)O)c(F)c3)c2)C1 |  | 7.03 | < 4.00 | Activity (Mus musculus [5]): Dose-dependent effect
6 | COc1cc(F)c(F)c(-c2cc(F)c(OCCCC(=O)O)c(F)c2)c1 |  | 7.16 | 4.61 | Ratio EC50 (Homo sapiens): 354
7 | CO[C@H]1C[C@H](Oc2cc(F)c(F)c(-c3cc(F)c(OCC(=O)O)c(F)c3)c2)C1 | inactive |  |  | 
8 | CO[C@H]1C[C@H](Oc2cc(F)c(F)c(-c3cc(F)c(S(=O)(=O)CCCC(=O)O)c(F)c3)c2)C1 | inactive |  |  | 
9 | CO[C@H]1C[C@H](Oc2cc(F)c(F)c(-c3cc(F)c(SCCCC(=O)O)c(F)c3)c2)C1 |  | 6.46 | < 4.00 | 
10 | CO[C@H]1C[C@H](Oc2cc(F)c(F)c(-c3ccc4c(c3)CC[C@H](CCC(=O)O)O4)c2)C1 |  | 6.33 | < 4.00 | Activity (Mus musculus [6]): Active
11 | CO[C@H]1C[C@H](Oc2cc(F)c(F)c(-c3cc(F)c(OCCC(C)(C)C(=O)O)c(F)c3)c2)C1 |  | 5.30 | < 4.00 | 
12 | CO[C@H]1C[C@H](Oc2cc(F)c(F)c(-c3cc(F)c(OCCCCCCCC(=O)O)c(F)c3)c2)C1 |  | 4.62 | 5.46 | Ratio EC50 (Homo sapiens): < 1
13 | CO[C@H]1C[C@H](Oc2cc(F)c(F)c(-c3cc(F)c(OCCCCCC(=O)O)c(F)c3)c2)C1 |  | 6.20 | 4.96 | Ratio EC50 (Homo sapiens): 17

Continued, in another order:

Row | Activity [1] | pEC50 [3] | pEC50 [4] | SMILES | also measured
14 | inactive |  |  | Cc1c(COc2cc(F)c(F)c(-c3cc(F)c(OCCCC(=O)O)c(F)c3)c2)cccc1-c1ccccc1 | 
15 | inactive |  |  | CO[C@H]1C[C@H](Oc2cc(F)c(F)c(-c3cc(F)c(OCCCC(=O)NS(C)(=O)=O)c(F)c3)c2)C1 | 
16 |  | 5.83 | < 4.00 | CC(C)Nc1ccccc1-c1cc(F)c(OCCCC(=O)O)c(F)c1 | pEC50 [2]: 5.70 to 6.70
17 |  | < 4.00 | 5.46 | CO[C@H]1C[C@H](Oc2cc(F)c(F)c(-c3cc(F)c(OCCCCCCC(=O)O)c(F)c3)c2)C1 | 
18 |  | 6.66 | < 4.00 | CO[C@H]1C[C@H](Oc2cc3c(c(-c4cc(F)c(OCCCC(=O)O)c(F)c4)c2)OCO3)C1 | 
19 |  | 5.56 | < 4.00 | O=C(O)CCCOc1c(F)cc(-c2cc(OC3CCOCC3)cc(F)c2F)cc1F | 
20 |  | 6.73 | 4.16 | CO[C@H]1C[C@H](Oc2cc(F)c(F)c(-c3cc(F)c(OCCCCC(=O)O)c(F)c3)c2)C1 | Ratio EC50 (Homo sapiens): 370
21 |  | 6.06 | < 4.00 | CO[C@H]1C[C@H](Oc2cc(F)c(F)c(-c3cc(C)c(OCCCC(=O)O)c(C)c3)c2)C1 | 
